Source: patent EP4563571A1, “PRMT5 INHIBITORS” (Beijing Earthwise Technology Co., Ltd., priority 2022, dated 2024)
Read-outs that look alike come from different tables or passages of the source.

What was measured:
HCT116 cells = experiment: Anti-proliferation assay on cells (Cell-Titer Glo, 10 days); assay type: cell-based; settings: for Selectivity multiple of HCT116^MTAP WT GI50/ HCT116^MTAP Deletion GI50: ratio of GI50 values
Description: Assay example 1: Method of anti-proliferation assay on cells
HCT116^MTAP Deletion cells were from Pharmaron (China); HCT116 cells were from ATCC; McCoy's 5A medium was purchased from Invitrogen (USA); penicillin-streptomycin and fetal bovine serum were purchased from Gibco (USA); a 384-well plate was purchased from PerkinElmer (USA); and Cell-Titer Glo reagent was purchased from Promega (USA).
Compound dissolution: All the compounds were dissolved in dimethyl sulfoxide (DMSO) and then stored. The compounds were stored at room temperature in a dry condition for 3 months for short term storage or at -20 °C for long term storage.
Cell culture and passaging
The cells were cultured strictly in accordance with ATCC requirements. The cell culture medium (McCoy's 5A medium + 10% fetal bovine serum + 1% penicillin + streptomycin) was transferred to a 15 mL centrifuge tube and centrifuged at 1000 rpm for 5 min. The supernatant was removed. The cells were resuspended with complete culture medium, inoculated into a culture dish at the required density, and cultured in an incubator at 37 °C, 95% humid air, and 5% carbon dioxide. The culture medium was replenished or the cells were passaged every 2-3 days depending on the cell growth condition.
Cell proliferation activity assay
When the confluency of cells in the culture dish reached about 90%, the cells were washed twice with PBS, and then treated with trypsin to become single cells. The cells were counted, and 40µl of the cells was inoculated into each well of a 384-well plate (50 cells/well). The plate was equilibrated at 37 °C and 5% carbon dioxide for 10 to 15 minutes. The compounds were injected into the 384-well plate using Echo550, and positive control and negative control (0.1% DMSO) were set up. Each compound was subjected to a 3-fold dilution, resulting in 10 concentration gradients, in duplicate, and the content of DMSO was 0.1%. The 384-well plate was incubated in a cell culture incubator for 10 days.
Then, 40 µl of cell proliferation assay reagent (CTG) was added to the 384-well plate, and the plate was shaken to mix well. Then, the 384-well plate was incubated at 37 °C and 5% carbon dioxide in the dark for 30 minutes. The data were read using the Envision multifunctional microplate reader. […] According to the different drug concentrations and their corresponding inhibition rates, the GI50 curve was drawn using GraphPad 8.0 software. The data were analyzed, and the final IC50 value was obtained.
In addition, the compounds of the present disclosure also have selectivity for mutant HCT116 cells. […] The selectivity data of representative compounds are shown in Table 2: Table 2 Selectivity data of representative compounds

[1] = test system: HCT116^MTAP Deletion cells; experiment: as above; assay type: cell-based
Procedure, shortened: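 HCT116^MTAP Deletion cells seeded at 50 cells/well and exposed to 10-point 3-fold compound dilutions in duplicate (0.1% DMSO) for 10 days at 37 °C. Viability read by CellTiter-Glo luminescence; IC50 derived from GI50 curves of concentration versus inhibition.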

[2] = HCT116^MTAP Deletion cells, 10 days incubation, CTG readout, read-out: HCT116^MTAP Deletion GI50
[3] = 240 h, HCT116^MTAP Deletion cells, 10 days incubation, CTG readout, read-out: HCT116^MTAP Deletion GI50

Selectivity multiple of HCT116^MTAP WT GI50/ HCT116^MTAP Deletion GI50 (HCT116 cells) | GI50 [1, 3] [µM] | Structure (SMILES) | other results
244 | 0.01 to 0.1 | CN(C(=O)C(=O)Nc1cnc(N)c2c1cnn2C)C1COCc2cc(-c3ccn(C)n3)ccc21 (stereo not drawn) [Example 93] | –
144 | < 0.01 | CN(C(=O)C(=O)Nc1cnc(N)c2c1cnn2C)C1COCc2cc(Br)ccc21 (stereo not drawn) [Example 94] | –
224 | < 0.01 | CN(C(=O)C(=O)Nc1cnc(N)c2c1cnn2C)C1COCc2cc(-c3cccnc3)ccc21 (stereo not drawn) [Example 95] | –
285 | – | CN(C(=O)C(=O)Nc1cnc(N)c2c1cnn2C)C1COCc2cc(-c3cnn(C)c3)ccc21 (stereo not drawn) [Example 99] | GI50 [1, 2]: < 0.01 µM
179 | – | CN(C(=O)C(=O)Nc1cnc(N)c2c1cnn2C)C1COCc2cc(C3=CCOCC3)ccc21 (stereo not drawn) [Example 100] | GI50 [1, 2]: < 0.01 µM
144 | 0.01 to 0.1 | CN(C(=O)C(=O)Nc1cnc(N)c2c1cnn2C)C1COCc2cc(C3CC3)ccc21 (stereo not drawn) [Example 104] | –
354 | < 0.01 | CN(C(=O)C(=O)Nc1cnc(N)c2c1cnn2C)C1COCc2cc(C#N)ccc21 (stereo not drawn) [Example 111] | –
215 | – | CN(C(=O)C(=O)Nc1cnc(N)c2c1cnn2C)C1COCc2cc(-c3cnn(C)c3)ccc21 (stereo not drawn) [Example 124-P1] | GI50 [1, 2]: < 0.01 µM
193 | < 0.01 | CN(C(=O)C(=O)Nc1cnc(N)c2c1cnn2C)C1COCc2cc(C3=CCC(F)(F)CC3)ccc21 (stereo not drawn) [Example 157] | –
247 | – | Cc1ncc(-c2ccc3c(c2)COCC3N(C)C(=O)C(=O)Nc2cnc(N)c3c2cnn3C)s1 (stereo not drawn) [Example 181-P1] | –
221 | < 0.01 | Cc1ccc(-c2ccc3c(c2)COCC3N(C)C(=O)C(=O)Nc2cnc(N)c3c2cnn3C)cn1 (stereo not drawn) [Example 184] | –
429 | < 0.01 | CN(C(=O)C(=O)Nc1cnc(N)c2c1cnn2C)C1COCc2cc(-c3cnc(C4CC4)s3)ccc21 (stereo not drawn) [Example 194] | –
128 | < 0.01 | Cc1ncccc1-c1ccc2c(c1)COCC2N(C)C(=O)C(=O)Nc1cnc(N)c2c1cnn2C (stereo not drawn) [Example 201] | –

Continued, molecule first:

Structure (SMILES) | Selectivity multiple of HCT116^MTAP WT GI50/ HCT116^MTAP Deletion GI50 (HCT116 cells) | GI50 [1, 3] [µM] | other results
CN(C(=O)C(=O)Nc1cnc(N)c2c1cnn2C)C1COCc2cc(Cl)c(Cl)cc21 (single isomer, unassigned) [Example 163-P1] | 94 | – | –
CC1OCC(N(C)C(=O)C(=O)Nc2cnc(N)c3c2cnn3C)c2ccc(C(F)(F)F)cc21 (single isomer, unassigned) [Example 187-P1] | 78 | – | –
CC1OCC(N(C)C(=O)C(=O)Nc2cnc(N)c3c2cnn3C)c2ccc(C(F)(F)F)cc21 (single isomer, unassigned) [Example 187-P2] | 59 | – | –
C[C@H](c1ncccn1)N(Cc1ccc(C(F)(F)F)cn1)C(=O)C(=O)Nc1cnc(N)c2cnn(C)c12 [Example 34] | – | – | GI50 [1, 2]: 0.1 to 1 µM; GI50 ([1]; read-out: GI50 for HCT116^MTAP Deletion): ≤ 0.1 µM; selectivity for mutant HCT116 cells (HCT116 cells; HCT116 GI50 versus HCT116^MTAP Deletion GI50, text b891): more than 300 times; GI50 (HCT116 cells; HCT116 cells): 1 to 10 µM
CCC(C)N(Cc1ccc(-c2ccn(C)n2)cn1)C(=O)C(=O)Nc1cnc(N)c2c1cnn2C (stereo not drawn) [Example 88] | 161 | < 0.01 | –
CN(C(=O)C(=O)Nc1cnc(N)c2c1cnn2C)C1COc2cc(C(F)(F)F)ccc21 (stereo not drawn) [Example 89] | 160 | – | GI50 [1, 2]: < 0.01 µM
CCC(C)N(Cc1ccc(-c2cnn(C)c2)cn1)C(=O)C(=O)Nc1cnc(N)c2c1cnn2C (stereo not drawn) [Example 90] | 119 | < 0.01 | –
Cn1ncc2c(NC(=O)C(=O)N(C3CC3)C3COCc4cc(C(F)(F)F)ccc43)cnc(N)c21 (stereo not drawn) [Example 98] | 106 | < 0.01 | –
CC(C)C(C)N(Cc1ccc(C(F)(F)F)cn1)C(=O)C(=O)Nc1cnc(N)c2c1cnn2C (stereo not drawn) [Example 110-P1] | 146 | < 0.01 | –
CCC(C)N(Cc1ccc(OC(F)(F)F)cn1)C(=O)C(=O)Nc1cnc(N)c2c1cnn2C (stereo not drawn) [Example 113] | 125 | < 0.01 | –
CN(C(=O)C(=O)Nc1cnc(N)c2c1cnn2C)C1COc2cc(-c3ccnn3C)ccc21 (stereo not drawn) [Example 161] | 169 | – | GI50 [1, 2]: < 0.01 µM
CN(C(=O)C(=O)Nc1cnc(N)c2c1cnn2C)C1COc2cc(-c3cnc(C(F)(F)F)s3)ccc21 (stereo not drawn) [Example 164] | 337 | 0.01 to 0.1 | –
Cc1cc(-c2ccc3c(c2)OCC3N(C)C(=O)C(=O)Nc2cnc(N)c3c2cnn3C)on1 (stereo not drawn) [Example 165] | 295 | 0.01 to 0.1 | –
CN(C(=O)C(=O)Nc1cnc(N)c2c1cnn2C)C1COCc2cc(C(F)(F)F)c(F)cc21 (stereo not drawn) [Example 167] | 61 | < 0.01 | –
CN(C(=O)C(=O)Nc1cnc(N)c2c1cnn2C)C1COCc2c1ccc(Cl)c2Cl (stereo not drawn) [Example 168-P1] | 147 | – | –
Cc1nn(C)c(C)c1-c1ccc2c(c1)COCC2N(C)C(=O)C(=O)Nc1cnc(N)c2c1cnn2C (stereo not drawn) [Example 178] | 116 | < 0.01 | –
CN(C(=O)C(=O)Nc1cnc(N)c2c1cnn2C)C1COCc2cc(-c3ccc(C(F)(F)F)nc3)ccc21 (stereo not drawn) [Example 185] | 240 | < 0.01 | –
CN(C(=O)C(=O)Nc1cnc(N)c2c1cnn2C)C1COc2cc(Cl)c(Cl)cc21 (stereo not drawn) [Example 186-P1] | 210 | – | –
CN(C(=O)C(=O)Nc1cnc(N)c2c1cnn2C)C1COCc2c1ccc(C(F)(F)F)c2F (stereo not drawn) [Example 195] | 226 | < 0.01 | –
